Experimental data: US20050203079A1, “Compounds having affinity at 5ht2C receptor and use thereof in therapy” (GLAXO GROUP LIMITED, priority 2002, published 2005)
Where a name gives a salt, the structure may show the parent alone.

**Q.** With `COc1ccc(N2CC=C(c3ccc(F)cc3)C2=O)cc1OCCN1CCCCC1` (as salt: hydrochloride) as the molecule, how does the melting point read?
**A.** 207 to 209 °C

**Q.** Which melting point does the source give for `COc1ccc(N2CC=C(c3cccc(Cl)c3)C2=O)cc1OCCN1CCC(C)CC1.Cl` here?
**A.** 99 to 101 °C
